According to US20050208125A1, “Substantially pure solid form of the enol tautomer of 3-indolypyruvic acid for use in the treatmetn of central nervous system disturbances” (priority 2002, published 2005):
Where two headings read alike, the source gives them in different places.

What was measured:
[1] = Solubility of the enol form in solvents; format: physicochemical
[2] = Intravenous injection in baboons, enol and kynurenic acid plasma kinetics; format: in vivo, baboon; details: intravenously, 200 mg/Kg
Procedure: (§1) It is already known from literature that the 3-indolylpyruvic acid may function, in suitable methabolic situations, as direct precursor to the kynurenic acid, the most important endogenous inhibitor of the excitatory amino acids. […] Therefore, comparison tests were conducted between the enol form of 3-indolylpyruvic acid, obtained according to the method described above in examples 1 and 2, the keto form (obtained solubilizing a standard preparation of 3-indolylpyruvic acid obtained from commercial sources in 0.1M NaOH), and a mixture of the two forms (obtained solubilizing the above standard preparation in a pH 7.4 phosphate buffer). […] Moreover, the enol form is found to be 100 to 1000 times more powerful than the keto one, both in protecting membrane phospholipids from degradation and in blocking luminol chemiluminescence induced by a xanthin/xanthin oxidase mixture. Concerning the formation of kynurenic acid, under the same experimental conditions the enol form of 3-indolylpyruvic acid always produced from 20 to 100 times more kynurenic acid than the keto form or the mixture of the two forms. […] Concomitantly, kynurenic acid began to form, reaching a plasma peak at +90-+180 min from the enol injection, with remarkable interindividual variations.

[3] = system: superoxide anion; assay: Neutralizing power towards oxygen free radicals; format: biochemical; details: contrarily to the keto tautomer form
Procedure: as §1

[4] = Plasma levels in dogs after administration in food-mixed pellets; format: in vivo; details: dog, oral
Procedure: In dogs as well analogous results were obtained, as the administration (in food-mixed pellets) of 100 mg/Kg enol form of 3-indolylpyruvic acid led, at +1 hour, to plasma rates of 106±47 -mcg/ml in acute, and of 97±17 mcg/ml in chronic. 285 mg/Kg doses produced, at +1 hour,concentrations of 136±17 mcg/ml in acute, and of 120±8 mcg/ml in chronic.

[5] = system: rats; assay: Pharmacological tests in rats, oral and IP; format: in vivo, rat
[6] = Plasma levels in rats after gastric lavage; format: in vivo; details: rat, oral, read-out: plasma level
Procedure: Raising the dose to 400 mg/Kg, values of 160±13 mcg/ml for acute administration and of 189±68 mcg/ml for chronic administration were obtained.

[7] = system: LAN5 human neuroblastoma cells; assay: Neuronal cell sprouting (neurite length); format: cell-based; details: 10 μM, 7 days, ± SD, untreated 21.8 ± 8.8
Procedure: LAN5 human neuroblastoma cells were seeded in 6-well plates (25.000 cells/well) in DMEM (Dulbecco's Modified Eagle's Medium) medium, additioned with 10% -fetal serum and 40 micrograms/ml gentamycin. After 24 hours, the enol tautomer of 3-indolylpyruvic acid or its derivatives, at an end concentration of 10 μM was added to the culture medium. The treatment was continued for 7 days, with medium replacement and addition of the compound under test every three days. At +7 days the cells were photopgraphed, using a Leitz Dialux 20 microscope. Then, neurite length was measured.
The results, reported in the following Table, express, in microns, the average length of the neurites for each treatment; ± is the standard deviation: […]

[8] = Incubation in rat liver homogenates; format: in vitro ADME
Description: The near-pure enol tautomer of 3-indolylpyruvic acid, obtained by the method described above in examples 1 and 2, was investigated on rat tissue homogenates, in order to highlight its participation in the methabolic pathways characterizing the use of tryptophan and of its derivatives in mammalian cells. […] This phenomenon, ascribed to the presence in biological fluids of a specific tautomerase already reported in literature, allows the enol form to be subjected to biochemical transformations by specific enzymes active on the indoles. In particular, when the enol form of the ketoacid is incubated in rat liver homogenates, […] is rather linear in time, is independent from the pH—at least in the 6.5÷7.5 interval—and it leads to the conversion of over the 50% of the ketoacid in 5 hours.

[9] = Stability of the enol form in solution (UV 325 nm peak, HPLC); format: physicochemical
Description: When the enol tautomer of 3-indolylpyruvic acid is solubilized in an aqueous environment, the decline of the UV peak at 325 nm, more or less quick according to the solution temperature, the pH and the type of buffer used is immediately observed. […] In the experimental conditions used, a quicker disappearance of the 325 nm peak is observed when the enol tautomer of the ketoacid is solubilized in diluted NaOH solutions; it follows that in this solvent the keto-enol equilibrium shifts towards the keto form in a few seconds.
At longer incubation times also the gem-diole form disappears, without giving rise to the keto form.
In particular, using a phosphate solution at pH 7.4, it is observed that the enol form drops to the 44% already at +30 min, whereas the gem-diole form begins to predominate (increase) at +1 hour (44% vs 23%), yet it stabilizes at about +2 hours (49%), and then gradually declines.

[10] = Incubation in rat tissue homogenates, enol form versus keto form; format: in vitro ADME; details: pH 7.4, rat tissue homogenates
Description: The near-pure enol tautomer of 3-indolylpyruvic acid, obtained by the method described above in examples 1 and 2, was investigated on rat tissue homogenates, in order to highlight its participation in the methabolic pathways characterizing the use of tryptophan and of its derivatives in mammalian cells. […] This phenomenon, ascribed to the presence in biological fluids of a specific tautomerase already reported in literature, allows the enol form to be subjected to biochemical transformations by specific enzymes active on the indoles. In particular, when the enol form of the ketoacid is incubated in rat liver homogenates, a gradual transformation of the enol of 3-indolylpyruvic acid in tryptophan is observed: the transformation is rather linear in time, is independent from the pH—at least in the 6.5÷7.5 interval—and it leads to the conversion of over the 50% of the ketoacid in 5 hours.

[11] = system: Human melanoma cells (A2058 line); assay: Melanoma cell invasion through Matrigel; format: cell-based; details: Homo sapiens, mean of three experiments ± SD
Description: Matrigel is an extracellular biological matrix extracted from the Englebreth-Holm-Swarm murine sarcoma, composed of the major components of the basement membrane like laminin, entactin, collagen IV and proteoglycans. At room temperature, Matrigel forms a gel that can promote the growth of primary and continuous cell lines, and moreover can act as medium (substrate) for the adhesion, the differentiation, the migration and the invasion of tumor cell lines. Due to such features, a Matrigel test is commonly used in order to characterize the activity of substances capable of interfering with the motility of tumor cells and of inflammatory response cells. The test is conducted in wells partitioned by an 8 micron pore size membrane: Matrigel (12.4 micrograms) is uniformly spread on the membrane, whereas a chemoattractant (600 microliters), consisting of the supernatant of a murine hembryo cell line (3T3) is inserted in the bottom section of the well. The cells to be tested are seeded in the top section of the well, whereas the compounds that could interfere with their motility are placed above as well as below the membrane, so as to prevent the formation of a concentration gradient. At the end of the experiment, the cells that have crossed the membrane are counted.
Human melanoma cells (A2058 line) were cultured in MEM medium, in a 5% CO2 at 37° C. Having reached the desired growth level, the (100.000) cells were seeded in the top section of the well. The enol of 3-indolylpyruvic acid and its salts, solubilized in the cell culture medium were placed in the top and bottom section of the well.

[12] = phosphate solution pH 7.4, +1 hour

Compound: O=C(O)/C(O)=C/c1c[nH]c2ccccc12 [3-IPA ENOL, enol tautomer of 3-indolylpyruvic acid]
- solubility in acetone ([1]; acetone): highly soluble
- solubility in chloroform ([1]; chloroform): wholly insoluble
- solubility in ethanol ([1]; ethanol): highly soluble
- solubility in ethyl ether ([1]; ethyl ether): slightly soluble
- solubility in methanol ([1]; methanol): highly soluble
- solubility in water ([1]; water): wholly insoluble
- enol plasma concentration curve [2]: remaining at clearly detectable levels for a few hours
- neutralizing power towards superoxide anion and hydroxyl ions [3]: strong neutralizing power
- concentration at 1 h ([4]; 100 mg/kg, chronic, read-out: plasma rate): 97 ± 17 µg/mL
- concentration at 1 h ([4]; 100 mg/kg, food-mixed pellets, 100 mg/Kg, acute, read-out: plasma rate): 106 ± 47 µg/mL
- concentration at 1 h ([4]; 285 mg/kg, acute, read-out: plasma concentration): 136 ± 17 µg/mL
- concentration at 1 h ([4]; 285 mg/kg, chronic, read-out: plasma concentration): 120 ± 8 µg/mL
- observed effects compared with the mixture of the two tautomers ([5]; mixture in pH 7.4 phosphate buffer): clearly superior
- pharmacological properties on the cardiovasculary system ([5]; orally and by IP injection): pressure reduction in hypertensive rats, but not in normotensive rats
- pharmacological properties on the central nervous system ([5]; orally and by IP injection): prolongation of sleep, central analgesia, protection from NMDA-induced convulsions, reduction of toxic effects from opiates, anxiolytic and antidepressant effects, stress inhibition
- concentration at 1 hour ([6]; 100 mg/kg, chronic): 183 ± 78 µg/mL
- concentration at 1 h ([6]; 100 mg/kg, gastric lavage, 100 mg/Kg, acute, +1 hour): 74 ± 14 µg/mL
- concentration at 1 hour ([6]; 400 mg/kg, acute): 160 ± 13 µg/mL
- concentration at 1 hour ([6]; 400 mg/kg, chronic): 189 ± 68 µg/mL
- average length of the neurites [7]: 31.9 ± 6.8 micrometers
- transformation into 3-indolyl-lactic acid [8]: No transformation
- time in which keto-enol equilibrium shifts towards the keto form ([9]; diluted NaOH solutions): a few seconds
- stability in methanol ([9]; methanol, several days at room temperature): extremely stable
- enol form remaining ([9]; phosphate solution pH 7.4, +30 min): 44%
- enol form remaining [9, 12]: 23%
- gem-diole form formed [9, 12]: 44%
- gem-diole form formed ([9]; phosphate solution pH 7.4, about +2 hours): ~49%
- stability in slightly alkaline buffer environments [10]: good stability
- inhibition at 125 µM ([11]; 125 μM): 44 ± 5%
- inhibition at 250 µM ([11]; 250 μM): 77 ± 11%
- inhibition at 500 µM ([11]; 500 μM): 97 ± 2%
